# Legend:
# [1] = tested on: tetanus toxoid; assay: Tetanus toxoid remaining in supernatant after stirring with octadecyl tyrosine; type: physicochemical; details: pH 7.0, 24 hours room temperature
# Procedure: Tetanus toxoid solution (10 ml, 30 Lf/ml, pH 7.0) was placed in a container with a magnetic stirring bar. An ether solution of octadecyl tyrosine (0.3 ml, 30 mg/ml) was added, the mixture stirred rapidly and the ether removed under vacuum. The resulting cloudy solution was stirred at room temperature for 24 hours.
# To tetanus toxoid solution (10 ml, 30 Lf/ml, pH 7.0) was added dry octadecyl tyrosine base (10 mg) and the mixture stirred for 24 hours at room temperature.
# [2] = tested on: guinea pigs which had been sensitized to tetanus toxoid; details: guinea pig, in vivo
# [3] = tested on: tetanus toxoid; set-up: species or system guinea pigs; details: guinea pig, in vivo, sc
Compound,"tetanus toxoid in supernatant, Procedure B ([1]; dry base 10 mg added to 10 ml toxoid 30 Lf/ml)","tetanus toxoid in supernatant, Procedure A ([1]; ether solution 0.3 ml, 30 mg/ml added to 10 ml toxoid 30 Lf/ml, after centrifuging)",Diameter of skin reaction [2] [mm],"Antibody Units/ml, 4 Weeks [3] [Units/ml]","Antibody Units/ml, 61/2 weeks [3] [Units/ml]"
CCCCCCCCCCCCCCCCCCOC(=O)[C@@H](N)Cc1ccc(O)cc1 [octadecyl tyrosine],no detectable tetanus toxoid,no detectable tetanus toxoid,–,–,–
Tetanus Toxoid,–,–,17 ± 1.47,1.39 ± 0.2,7.2 ± 1.2
